Entries after “also recorded” stand apart in the source; their conditions may differ.
Columns and labels:
[1] = system: C57BL/6 mice, MCAo and reperfusion; assay: 2-hour MCAo followed by 24 hours reperfusion, infarct volume and reperfusion edema (Example 2); format: in vivo, mouse; details: 0.07 mg/kg IV at reperfusion
Method: A,B: Edema, measured as percent hemispheric swelling, vs. TTC infarct volume following 2 hour MCAo and 24 hour reperfusion; data are shown for C57BL/6 mice treated upon reperfusion with vehicle (empty circles) vs. the SGLT2 inhibitor, canagliflozin (filled squares; 0.07 mg/kg IV). Note the significant downward shift in the regression line, signifying reduced coupling between reperfusion edema and infarct volume.
The known variability in the brain damage caused by ischemia in C57BL/6 mice was leveraged (Knauss, et al., Frontiers in Neuroscience 2020) to quantify the relationship between reperfusion edema and infarct volume, under both control conditions and with SGLT2 inhibition. Mice underwent 2-hour MCAo followed by 24 hours reperfusion. At 2 hours, at the time of reperfusion, mice were randomly assigned to receive either vehicle control or canagliflozin (0.07 mg/kg IV). At 24 hours, the brains were evaluated for infarct volume using 2,3,5-triphenyltetrazolium chloride (TTC) (Khan, et al., Evaluation of an optimal temperature for brain storage in delayed 2, 3,5-triphenyltetrazolium chloride staining, J. Neurosci. Methods 2000, 98:43-47), and the hemisphere volume was quantified as a measure of reperfusion edema. McBride, et al., Correcting for Brain Swelling's Effects on Infarct Volume Calculation After Middle Cerebral Artery Occlusion in Rats, Transl. Stroke Res. 2015, 6:323-338. […]

[2] = Serum glucose before and after canagliflozin administration (Example 3); format: in vivo, mouse; details: 0.07 mg/kg IV; compared to baseline / vehicle; 5 mice/group
Method: Drugs of the gliflozin class are used in patients with diabetes mellitus to lower serum glucose. To control for the possibility that the effect of canagliflozin was mediated by a reduction in serum glucose, we measured serum glucose at various times before and after canagliflozin (0.07 mg/kg IV) administration.

C57BL6 mice, MCAo/R = assay: MCAo/R (2/24 hours): infarct volume, hemispheric swelling, brain water, Garcia score (Example 4); format: in vivo, mouse
[3] = Blood glucose at reperfusion and at euthanasia by glucometer (Example 4); format: in vivo, mouse; details: non-diabetic mice; 200 μg/kg IV; 5-7 mice/group
[4] = system: astrocytes (SGLT2 activated by glucose); assay: Astrocyte cell volume in ex vivo MCAo/R brain slices after glycemic challenge; format: cell-based, mouse; details: ipsilateral brain slices, MCAo/R 2/6 hours; step change 2 to 10 mM glucose; 5 μM
[5] = system: rat model with type 1 diabetes mellitus and bilateral ischemia; details: 30-minute bilateral ischemia; cited from earlier work
[6] = system: patients with or without T2DM; details: long-term use, regardless of T2DM; cited from earlier work
[7] = 200 μg/kg IV at reperfusion, mean ± S.E.

Row | Structure (SMILES) | infarct volume (TTC) [1] | reperfusion edema (percent hemispheric swelling) relative to infarct volume ([1]; shift in Deming regression p<0.0001) | serum glucose [2] | neurological function, Garcia score (median) (C57BL6 mice, MCAo/R; 200 μg/kg IV) | hemispheric swelling (C57BL6 mice, MCAo/R; [7]) | infarct volume (C57BL6 mice, MCAo/R; [7]) | maximum hemispheric swelling (YM) from exponential fit (C57BL6 mice, MCAo/R; 200 μg/kg IV, fit to Eq. 1) | ipsilateral brain water (C57BL6 mice, MCAo/R; 200 μg/kg IV, wet weight/dry weight method) | blood glucose at 24 hours [3] | blood glucose at reperfusion [3] | glucose-induced changes in astrocyte volume [4] | blood glucose [5] | infarct volume [5] | progression of kidney disease [6] | risk of death from cardiovascular disease [6]
1 | Cc1ccc([C@@H]2O[C@H](CO)[C@@H](O)[C@H](O)[C@H]2O)cc1Cc1ccc(-c2ccc(F)cc2)s1 [canagliflozin] | 63.1±8.0 % of hemisphere | reduced at all infarct volumes | remained euglycemic; also recorded: not affected | 8 | 15.7±1.0% | 87.7±6.7 mm^3 | 17.9% | 82.3±0.4 | 146 ± 10 mg/dL | 175 ± 10 mg/dL | completely blocked | – | – | – | –
2 | OC[C@H]1O[C@@H](c2ccc(Cl)c(Cc3ccc(O[C@H]4CCOC4)cc3)c2)[C@H](O)[C@@H](O)[C@@H]1O [empagliflozin] | – | – | – | – | – | – | – | – | – | – | – | reduced blood glucose | reduced blood glucose as well as infarct volume | slows the progression of kidney disease | reduces the risk of death from cardiovascular disease
